Read-outs that look alike come from different tables or passages of the source.

We go through ten compounds from US11440906B2, “Biguanide derivatives and their rearrangement products for use in the treatment of cancer” (CENTRE NATIONAL DE LA RECHERCHE SCIENTIFIQUE, priority 2017, dated 2022).

One assay has as its system A375 Sensitive cells. Briefly: Viability test, trypan blue exclusion, A375 Sensitive cells. Format: cell-based, human. The following applies: Homo sapiens, A-375, viable cells as percentage of DMSO control. The method in brief:
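A375 (B-Raf, CDKN2A, PTEN mutant) cells were exposed to compounds at 5.0 or 10 μM for 24 or 48 hr; CRO15 also at 0.5–50 μM for 48 hr or 5 μM for 2–48 hr; DMSO control. Viable cells were counted by trypan blue exclusion, as % of control. Three experiments in triplicate.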

In assay [1] the test system is A375 resistant melanoma cells. Briefly: In vivo murine cancer model, A375 resistant xenograft. Also on record: species or system BALB/c nu/nu (nude) mice. The following applies: 0.7 mg/mouse/day intraperitoneal. Here is the method: Animal experiments were carried out in accordance with the Declaration of Helsinki and were approved by a local ethical committee CIEPAL (Comité Institutionnel d'Ethique Pour l'Animal de Laboratoire-Azur). Female immune-deficient BALB/c nu/nu (nude) mice were obtained at 5 weeks of age from Envigo Laboratory (Gannat, France). Nude mice were inoculated subcutaneously with A375 sensitive or resistant melanoma cells (1.0×10^6 cells/mouse). After tumor apparition (±5 days), animals received intraperitoneal injection of Labrafil (Control), PLX4032 (0.7 mg/mouse/day) or CRO15 (0.7 mg/mouse/day) dissolved in Labrafil. The growth tumor curves were determined by measuring the tumor volume using the equation V=(L*W2)/2 (V=tumor volume, W=tumor width, L=tumor length). At the end of the experiment, mice were euthanized by cervical dislocation and tumors were taken for western blot and immunofluorescence experiments (LC3, Cleaved Caspase 3). TUNEL assay was performed using the In Situ Cell Death Detection Kit (Roche, Meylan, France). The results are shown in FIGS. 3A and 3B (A375 sensitive melanoma cells), and 4B and 4C (A375 resistant melanoma cells).
In Vivo Murine Cancer Model Animal experiments were carried out in accordance with the Declaration of Helsinki and were approved by a local ethical committee CIEPAL (Comite Institutionnel d'Ethique Pour l'Animal de Laboratoire-Azur). Female immune-deficient BALB/c nu/nu (nude) mice were obtained at 5 weeks of age from Envigo Laboratory (Gannat, France). Nude mice were inoculated subcutaneously with A375 resistant melanoma cells (1.0×10^6 cells/mouse). After tumor apparition (+5 days), animals received intraperitoneal injection of Labrafil (Control), PLX4032 (0.7 mg/mouse/day) or MTF319 (0.7 mg/mouse/day) dissolved in Labrafil. The growth tumor curves were determined by measuring the tumor volume using the equation V=(L*W2)/2 (V=tumor volume, W=tumor width, L=tumor length). At the end of the experiment, mice were euthanized by cervical dislocation.

Another assay has as its system melanoma cells. The following applies: literature, read-out: IC50 to induce cell death; cited from earlier work.
Setting [2] is: 24 h, read-out: Viab A375 5 μM/ 24 h.
Setting [3] is: 48 h, read-out: Viab A375 5 μM/ 48 h.
Where [4] appears, read: 24 h, read-out: Viab A375 10 μM/ 24 h.
The mark [5] stands for this setting: 48 h, read-out: Viab A375 10 μM/ 48 h.

As for `CCOc1cccc(-c2nc(N)nc(Nc3ccccc3SSc3ccccc3Nc3nc(N)nc(-c4cccc(OCC)c4)n3)n2)c1` [MTF 319, N2,N2′-(disulfanediylbis(2,1-phenylene))bis(6-(3-ethoxyphenyl)-1,3,5-triazine-2,4-diamine)], the viability at 5 µM in the assay with A375 Sensitive cells (setting [2]) amounted to 8.6%; in the assay with A375 Sensitive cells (setting [3]) it was 3.1%. Also, the viability at 10 µM in the assay with A375 Sensitive cells (setting [4]) stood at 8.6%; with A375 Sensitive cells (setting [5]), 0.6%. For the same compound, the tumor volume result in assay [1] (FIG. 4B, 6A) is listed as “decrease in tumor volume”. Moreover, the tumor weight entry in assay [1] (FIG. 4C, 6B) is listed as “had an effect on the tumor growth”.
With `Cc1ccc(-c2nc(N)nc(Nc3ccccc3SSc3ccccc3Nc3nc(N)nc(-c4ccc(C)cc4)n3)n2)cc1` [MTF 451, N2,N2′-(disulfanediylbis(2,1-phenylene))bis(6-(p-tolyl)-1,3,5-triazine-2,4-diamine)], the viability at 5 µM with A375 Sensitive cells (setting [2]) amounted to 26.1%; with A375 Sensitive cells (setting [3]) it was 23.9%. Also, the viability at 10 µM in the assay on A375 Sensitive cells (setting [4]) worked out at 10.6%; in the assay with A375 Sensitive cells (setting [5]), 12.5%.
For `Nc1nc(Nc2ccccc2SSc2ccccc2Nc2nc(N)nc(-c3ccccc3F)n2)nc(-c2ccccc2F)n1` [MTF 452, N2,N2′-(disulfanediylbis(2,1-phenylene))bis(6-(2-fluorophenyl)-1,3,5-triazine-2,4-diamine)] the same measures were 43.6%, 60.5%, 22.3% and 40.3%.
For `Nc1nc(Nc2ccccc2SSc2ccccc2Nc2nc(N)nc(-c3c(Cl)cccc3Cl)n2)nc(-c2c(Cl)cccc2Cl)n1` [MTF 455, N2,N2′-(disulfanediylbis(2,1-phenylene))bis(6-(2,6-dichlorophenyl)-1,3,5-triazine-2,4-diamine)], in that order: 89%, 108%, 32.3% and 69.5%.
For `Nc1nc(Nc2ccccc2SSc2ccccc2Nc2nc(N)nc(-c3c(Br)cncc3Br)n2)nc(-c2c(Br)cncc2Br)n1` [MTF 456, N2,N2′-(disulfanediylbis(2,1-phenylene))bis(6-(3,5-dibromopyridin-4-yl)-1,3,5-triazine-2,4-diamine)], in that order: 66.5%, 87.5%, 52.3% and 76.1%.
Turning to `Nc1nc(Nc2ccccc2SSc2ccccc2Nc2nc(N)nc(-c3cc4c(cc3Br)OCO4)n2)nc(-c2cc3c(cc2Br)OCO3)n1` [MTF 458, N2,N2′-(disulfanediylbis(2,1-phenylene))bis(6-(6-bromobenzo[d][1,3]dioxol-5-yl)-1,3,5-triazine-2,4-diamine)], the viability at 5 µM came to 58.7% in the assay with A375 Sensitive cells (setting [2]) and 86.8% with A375 Sensitive cells (setting [3]). For the same compound, the viability at 10 µM came to 46.5% in the assay on A375 Sensitive cells (setting [4]) and 104% in the assay with A375 Sensitive cells (setting [5]).
For `Nc1cccc(-c2nc(N)nc(Nc3ccccc3SSc3ccccc3Nc3nc(N)nc(-c4cccc(N)c4)n3)n2)c1` [MTF 460, N2,N2′-(disulfanediylbis(2,1-phenylene))bis(6-(3-aminophenyl)-1,3,5-triazine-2,4-diamine)] the same measures were 61.9%, 69.5%, 64.5% and 38.6%.
For `CC(=O)c1cccc(-c2nc(N)nc(Nc3ccccc3SSc3ccccc3Nc3nc(N)nc(-c4cccc(C(C)=O)c4)n3)n2)c1` [MTF 462, 1,1′-((((disulfanediylbis(2,1-phenylene))bis(azanediyl))bis(6-amino-1,3,5-triazine-4,2-diyl))bis(3,1-phenylene))bis(ethan-1-one)] the same measures were 101%, 80%, 4.8% and 44.1%.
For `Nc1nc(Nc2ccccc2SSc2ccccc2Nc2nc(N)nc(-c3ccccc3[N+](=O)[O-])n2)nc(-c2ccccc2[N+](=O)[O-])n1` [MTF 463, N2,N2′-(disulfanediylbis(2,1-phenylene))bis(6-(2-nitrophenyl)-1,3,5-triazine-2,4-diamine)], in that order: 80%, 74.3%, 56.1% and 43.4%.
As for `CN(C)C(=N)N=C(N)N` [metformin], the half-maximal inhibitory concentration (IC50) in the assay on melanoma cells is 10 mM.

The term IC50 denotes the concentration that inhibits the measured activity by half.
